Target: T1, CXCR3 (Homo sapiens, UniProt P49682)
T1 construct: host or cells: CHO-K1 (cAMP Hunter CHOK1 CXCR3 Gi cell line)
T1 sequence (P49682 1-368): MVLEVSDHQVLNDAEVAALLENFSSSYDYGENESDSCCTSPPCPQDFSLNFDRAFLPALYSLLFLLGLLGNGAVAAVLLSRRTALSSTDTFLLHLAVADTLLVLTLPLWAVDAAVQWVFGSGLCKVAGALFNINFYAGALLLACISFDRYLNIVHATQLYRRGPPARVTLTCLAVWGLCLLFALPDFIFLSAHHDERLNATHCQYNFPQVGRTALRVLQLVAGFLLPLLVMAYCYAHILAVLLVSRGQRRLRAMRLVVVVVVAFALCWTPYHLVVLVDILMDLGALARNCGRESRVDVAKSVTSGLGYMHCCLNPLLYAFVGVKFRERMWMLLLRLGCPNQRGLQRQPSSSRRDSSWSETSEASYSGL
Experiment: CXCR3 cAMP agonist assay (cAMP Hunter CHOK1 CXCR3 Gi cell line, forskolin-stimulated, HitHunter cAMP detection)
Type: cell-based
Conditions: cAMP Hunter CHOK1 CXCR3 Gi cells, 20 μM forskolin, 30 minutes; read-out: Activity (CXCR3 cAMP agonist assay compound EC50)
Summary of the method: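 Agonist activity was measured as suppression of forskolin (20 μM)-induced cAMP, read by luminescent enzyme-fragment complementation with a cAMP standard curve and CXCL11 defining full efficacy. Assay used 50,000 CXCR3 Gi CHOK1 cells/well in pH 7.4 HEPES-buffered HBSS with 0.1% BSA, compound 0-10 μM over 12 points, 30 min incubation.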

SMILES: Cc1cc(NC(=O)C(CCC2(N(C)C)COC2)NC(=O)[C@@H]2Cc3ccccc3CN2C(=O)CCC(=O)c2ccccc2)ccc1Cl (stereo partly drawn) [Compound 21-1, (3S)—N-(1-((4-chloro-3-methylphenyl)amino)-4-(3-(dimethylamino)oxetan-3-yl)-1-oxobutan-2-yl)-2-(4-oxo-4-phenylbutanoyl)-1,2,3,4-tetrahydroisoquinoline-3-carboxamide]
- EC50: 50 to 250 nM

SMILES: Cc1cc(NC(=O)[C@H](CCN)NC(=O)[C@@H]2Cc3ccccc3CN2C(=O)CCC(=O)c2ccccc2)cc(Cl)c1Cl [Compound 4-18]
- EC50: 50 to 250 nM

SMILES: Cc1cc(NC(=O)[C@H](CCN)NC(=O)[C@@H]2Cc3ccccc3CN2C(=O)CCC(=O)c2ccccc2)ccc1C(F)(F)F [Compound 2-27]
- EC50: 50 to 250 nM

SMILES: Cc1cc(NC(=O)[C@H](CCN)NC(=O)[C@@H]2Cc3ccccc3CN2C(=O)CCC(=O)c2ccccc2)c(I)cc1Cl [Compound 2-38]
- EC50: < 50 nM

SMILES: NCC[C@H](NC(=O)[C@@H]1Cc2ccccc2CN1C(=O)CCC(=O)N1CCCC[C@@H]1CO)C(=O)Nc1ccc(Cl)c(Cl)c1F [Compound 15-18]
- EC50: < 50 nM

SMILES: CCOc1cccc(C(=O)CCC(=O)N2Cc3ccccc3C[C@H]2C(=O)N[C@@H](CCCCN)C(=O)Nc2ccc(Cl)c(C)c2)c1 [Compound 7-7]
- EC50: 50 to 250 nM

SMILES: CCc1c(NC(=O)[C@H](CCN)NC(=O)[C@@H]2Cc3ccccc3CN2C(=O)CCC(=O)c2ccccc2)ccc(Cl)c1C [Compound 2-54]
- EC50: > 500 nM

SMILES: Cc1c(NC(=O)C2(NC(=O)[C@@H]3Cc4ccccc4CN3C(=O)CCC(=O)c3ccccc3)CCNCC2)ccc(Cl)c1Cl [Compound 11-2]
- EC50: 250 to 500 nM

SMILES: Cc1cc(NC(=O)C(CC2CCN(C)CC2)NC(=O)[C@@H]2Cc3ccccc3CN2C(=O)CCC(=O)c2ccccc2)ccc1Cl (mixture of isomers) [Compound 6-1, (S)—N—((S)-1-((4-chloro-3-methylphenyl)amino)-3-(1-methylpiperidin-4-yl)-1-oxopropan-2-yl)-2-(4-oxo-4-phenylbutanoyl)-1,2,3,4-tetrahydroisoquinoline-3-carboxamide]
- EC50: 50 to 250 nM

SMILES: Cc1ccc(C#N)cc1NC(=O)[C@H](CCN)NC(=O)[C@@H]1Cc2ccccc2CN1C(=O)CCC(=O)c1ccccc1 [Compound 14-20]
- EC50: 250 to 500 nM

SMILES: COC[C@@H]1CCCN1C(=O)CCC(=O)N1Cc2ccccc2C[C@H]1C(=O)N[C@@H](CCN)C(=O)Nc1ccc(Cl)c(C)c1 [Compound 12-134]
- EC50: 50 to 250 nM

SMILES: CC1(C)CCCN(C(=O)CCC(=O)N2Cc3cc(F)ccc3C[C@H]2C(=O)N[C@@H](CCN)C(=O)Nc2ccc(Cl)c(Cl)c2F)C1 [Compound 15-57]
- EC50: < 50 nM

SMILES: Cc1cc(NC(=O)[C@H](CCN)NC(=O)[C@@H]2Cc3ccccc3CN2C(=O)CCC(=O)N2CCCCC2C#N)ccc1Cl (some centres unmarked) [Compound 12-84]
- EC50: < 50 nM

SMILES: NCC[C@H](NC(=O)[C@@H]1Cc2ccccc2CN1C(=O)CCC(=O)c1ccccc1)C(=O)Nc1cc2c(cc1Cl)CCC2 [Compound 2-73]
- EC50: < 50 nM

SMILES: Cc1cc(NC(=O)[C@H](CCN)NC(=O)[C@@H]2Cc3ccccc3CN2C(=O)CCC(=O)N2CCc3ccccc3C2)ccc1Cl [Compound 12-76]
- EC50: < 50 nM

SMILES: Cc1cc(NC(=O)[C@H](CCN)NC(=O)[C@@H]2Cc3ccccc3CN2C(=O)CCC(=O)N2CCS(=O)(=O)CC2)ccc1Cl [Compound 12-17]
- EC50: 50 to 250 nM

SMILES: Cc1cc(NC(=O)[C@H](CCN)NC(=O)[C@@H]2Cc3ccccc3CN2C(=O)CCC(=O)N2CCCC2(C)C)ncc1Cl [Compound 12-157]
- EC50: < 50 nM

SMILES: Cc1cc(NC(=O)C(NC(=O)[C@@H]2Cc3ccccc3CN2C(=O)CCC(=O)c2ccccc2)C2CCNCC2)ccc1Cl (mixture of isomers) [Compound 4-7]
- EC50: > 500 nM

SMILES: COc1cc2c(cc1NC(=O)[C@H](CCN)NC(=O)[C@@H]1Cc3ccccc3CN1C(=O)CCC(=O)c1ccccc1)CCCC2 [Compound 2-59]
- EC50: 250 to 500 nM

SMILES: NCC[C@H](NC(=O)[C@@H]1Cc2ccccc2CN1C(=O)CCC(=O)c1ccccc1)C(=O)Nc1cc(Cl)c(Cl)cn1 [Compound 4-15]
- EC50: 250 to 500 nM

SMILES: NCC[C@H](NC(=O)[C@@H]1Cc2ccccc2CN1C(=O)CCC(=O)N1CCCC12CCC2)C(=O)Nc1ccc2c(c1)CCC2 [Compound 10-6]
- EC50: < 50 nM

SMILES: NCC[C@H](NC(=O)[C@@H]1Cc2ccccc2CN1C(=O)CCC(=O)c1ccccc1)C(=O)Nc1ccc(C(F)(F)F)c(F)c1 [Compound 2-11]
- EC50: 250 to 500 nM

SMILES: Cc1cc(NC(=O)[C@H](CCN)NC(=O)[C@@H]2Cc3ccccc3CN2C(=O)CCC(=O)N2CCCC2)ccc1Cl [Compound 12-5]
- EC50: < 50 nM

SMILES: Cc1c(Cl)ccc(NC(=O)[C@H](CCN)NC(=O)[C@@H]2Cc3ccccc3CN2C(=O)CCC(=O)N2CCCC3(CCC3)C2)c1Cl [Compound 15-51]
- EC50: < 50 nM

SMILES: NCC[C@H](NC(=O)[C@@H]1Cc2ccccc2CN1C(=O)CCC(=O)c1ccccc1)C(=O)Nc1c(F)cccc1Cl [Compound 14-9]
- EC50: 250 to 500 nM

SMILES: COc1ccc(C(=O)CCC(=O)N2Cc3ccccc3C[C@H]2C(=O)N[C@@H](CCCCN)C(=O)Nc2ccc(Cl)c(C)c2)cc1F [Compound 7-9]
- EC50: > 500 nM

SMILES: NCC[C@H](NC(=O)[C@@H]1Cc2ccccc2CN1C(=O)CCC(=O)N1CCC2CCCCC21)C(=O)Nc1ccc(Cl)c(Cl)c1F (some centres unmarked) [Compound 15-38]
- EC50: < 50 nM

SMILES: CC[C@H]1CCCN1C(=O)CCC(=O)N1Cc2ccccc2C[C@H]1C(=O)N[C@@H](CCN)C(=O)Nc1ccc(Cl)c(C)c1 [Compound 12-111]
- EC50: < 50 nM

SMILES: Cc1cc(NC(=O)[C@H](CCN)NC(=O)[C@@H]2Cc3ccccc3CN2C(=O)CCC(=O)N2CCC(C(F)(F)F)C2)ccc1Cl (some centres unmarked) [Compound 12-52]
- EC50: < 50 nM

SMILES: CC(C)(C)C1CCN(C(=O)CCC(=O)N2Cc3ccccc3C[C@H]2C(=O)N[C@@H](CCN)C(=O)Nc2ccc(Cl)c(Cl)c2F)C1 (some centres unmarked) [Compound 15-34]
- EC50: < 50 nM

SMILES: Cc1cc(NC(=O)[C@H](CCN)NC(=O)[C@@H]2Cc3ccccc3CN2C(=O)CCC(=O)N2CC3CCC2C3)ccc1Cl (some centres unmarked) [Compound 12-32]
- EC50: < 50 nM

SMILES: NCC[C@H](NC(=O)[C@@H]1Cc2ccccc2CN1C(=O)CCC(=O)c1ccccc1)C(=O)Nc1cc(F)ccc1Cl [Compound 14-1, (S)—N—((S)-4-amino-1-((2-chloro-5-fluorophenyl)amino)-1-oxobutan-2-yl)-2-(4-oxo-4-phenylbutanoyl)-1,2,3,4-tetrahydroisoquinoline-3-carboxamide]
- EC50: 250 to 500 nM

SMILES: CN1CCN(C(=O)CCC(=O)N2Cc3ccccc3C[C@H]2C(=O)N[C@@H](CCN)C(=O)Nc2ccc(Cl)c(Cl)c2F)CC1 [Compound 10-4]
- EC50: < 50 nM

SMILES: Cc1ccc(NC(=O)[C@H](CCN)NC(=O)[C@@H]2Cc3ccccc3CN2C(=O)CCC(=O)c2ccccc2)c(F)c1 [Compound 2-31]
- EC50: 50 to 250 nM

SMILES: NCC[C@H](NC(=O)[C@@H]1Cc2ccccc2CN1C(=O)CCC(=O)c1ccccc1)C(=O)Nc1ccc(F)c(F)c1 [Compound 2-8]
- EC50: > 500 nM

SMILES: Cc1cc(NC(=O)[C@H](CCN)NC(=O)[C@@H]2Cc3ccccc3CN2C(=O)CCC(=O)N2CCC[C@@H](C)C2)ccc1Cl [Compound 12-57]
- EC50: < 50 nM

SMILES: Cc1cc(NC(=O)[C@H](CCN)NC(=O)[C@@H]2Cc3ccccc3CN2C(=O)CCC(=O)N2CCC(C)(C)CC2)ccc1Cl [Compound 12-28]
- EC50: < 50 nM

SMILES: CN1Cc2ccc(NC(=O)[C@H](CCN)NC(=O)[C@@H]3Cc4ccccc4CN3C(=O)CCC(=O)c3ccccc3)cc2C1 [Compound 2-82]
- EC50: < 50 nM

SMILES: COc1cc(Cl)c(C)cc1NC(=O)[C@H](CCN)NC(=O)[C@@H]1Cc2ccccc2CN1C(=O)CCC(=O)c1ccccc1 [Compound 2-25]
- EC50: < 50 nM

SMILES: Cc1cc(NC(=O)[C@H](CCN)NC(=O)[C@@H]2Cc3ccccc3CN2C(=O)CCC(=O)NCC2CCOCC2)ccc1Cl [Compound 12-12]
- EC50: > 500 nM

SMILES: CS(=O)(=O)C1CCN(C(=O)CCC(=O)N2Cc3ccccc3C[C@H]2C(=O)N[C@@H](CCN)C(=O)Nc2ccc(Cl)c(Cl)c2F)CC1 [Compound 15-13]
- EC50: > 500 nM

SMILES: Cc1cc(NC(=O)[C@H](CCN)NC(=O)[C@@H]2Cc3ccccc3CN2C(=O)CCC(=O)NCc2ccccc2)ccc1Cl [Compound 12-18]
- EC50: > 500 nM

SMILES: NCC[C@H](NC(=O)[C@@H]1Cc2ccccc2CN1C(=O)CCC(=O)c1ccccc1)C(=O)Nc1ccc(C(F)(F)F)c(Cl)c1 [Compound 2-13]
- EC50: > 500 nM

SMILES: CCN(CC)C(=O)CCC(=O)N1Cc2ccccc2C[C@H]1C(=O)N[C@@H](CCN)C(=O)Nc1ccc(Cl)c(C)c1 [Compound 12-14]
- EC50: 50 to 250 nM

SMILES: Cc1cc(NC(=O)[C@@H](Cc2cc3ccccc3[nH]2)NC(=O)[C@@H]2Cc3ccccc3CN2C(=O)CCC(=O)c2ccccc2)ccc1Cl [Compound 4-5]
- EC50: > 500 nM

SMILES: Cc1cc(NC(=O)[C@H](CCN)NC(=O)[C@@H]2Cc3ccccc3CN2C(=O)CCC(=O)N2CCC3(CC3)C2)ccc1Cl [Compound 12-69]
- EC50: < 50 nM

SMILES: NCC[C@H](NC(=O)[C@@H]1Cc2ccccc2CN1C(=O)CCC(=O)N1CCC(C(F)(F)F)C1)C(=O)Nc1ccc(Cl)c(Cl)c1F (some centres unmarked) [Compound 15-47]
- EC50: < 50 nM

SMILES: NCC[C@H](NC(=O)[C@@H]1Cc2ccccc2CN1C(=O)CCC(=O)c1ccccc1)C(=O)Nc1cccc2c1CCC2 [Compound 2-67]
- EC50: < 50 nM

SMILES: Cc1cccc(Cl)c1NC(=O)[C@H](CCN)NC(=O)[C@@H]1Cc2ccccc2CN1C(=O)CCC(=O)c1ccccc1 [Compound 14-10]
- EC50: > 500 nM

SMILES: Cc1cc(NC(=O)[C@H](CCN)NC(=O)[C@@H]2Cc3ccccc3CN2C(=O)CCC(=O)N2CCN(C)CC2(C)C)ccc1Cl [Compound 12-103]
- EC50: < 50 nM
